# Measured values as given in US20240226125A1, “USE OF SOTAGLIFLOZIN FOR THE TREATMENT OF PATIENTS WITH TYPE 1 DIABETES MELLITUS” (priority 2019, published 2024).
# Tested on: adult patients with Type 1 Diabetes Mellitus who have inadequate glycemic control with insulin therapy
# Assay: inTandem 1 and inTandem 2 pooled clinical studies, safety events / main risks
# Format: in vivo, human
# Conditions: Week 52
# [1] = 200 mg (N = 219), Baseline BMI <27 kg/m^2
# [2] = 200 mg (N = 305), Baseline BMI ≥27 kg/m^2
# [3] = 200 mg, Baseline BMI <27 kg/m^2
# [4] = 200 mg, Baseline BMI ≥27 kg/m^2
# [5] = 400 mg (N = 212), Baseline BMI <27 kg/m^2
# [6] = 400 mg (N = 313), Baseline BMI ≥27 kg/m^2
smiles,measurement,setting,value
"CCOc1ccc(Cc2cc([C@@H]3O[C@H](SC)[C@@H](O)[C@H](O)[C@H]3O)ccc2Cl)cc1 [sotagliflozin, (2S,3R,4R,5S,6R)-2-(4-chloro-3-(4-ethoxybenzyl)phenyl)-6-(methylthio)tetrahydro-2H-pyran-3,4,5-triol]","Genital Mycotic Infections (male), Events [n (%) n]: patients n","200 mg (N = 108), Baseline BMI <27 kg/m^2",2
same,"Genital Mycotic Infections (female), Events [n (%) n]: patients n","200 mg (N = 111), Baseline BMI <27 kg/m^2",8
same,"Genital Mycotic Infections (female), Events [n (%) n]: patients n","200 mg (N = 148), Baseline BMI ≥27 kg/m^2",32
same,"Genital Mycotic Infections (male), Events [n (%) n]: patients n","200 mg (N = 157), Baseline BMI ≥27 kg/m^2",6
same,"Positively Adjudicated Diabetic Ketoacidosis, Events [n (%) n]: patients n",[1],7
same,"Positively Adjudicated Severe Hypoglycemia, Events [n (%) n]: patients n",[1],17
same,"Positively Adjudicated Diabetic Ketoacidosis, Events [n (%) n]: patients n",[2],8
same,"Positively Adjudicated Severe Hypoglycemia, Events [n (%) n]: patients n",[2],13
same,"Diarrhea, EAIR per 1,000 Subject-years (95% CL)",[3],"89.76 (48.29, 131.23) per 1,000 Subject-years"
same,"Diarrhea, Events [n (%) n]: events n",[3],23
same,"Diarrhea, Events [n (%) n]: patients (%)",[3],8.2%
same,"Diarrhea, Events [n (%) n]: patients n",[3],18
same,"Diarrhea, Events per Subject per Year",[3],0.115 Events per Subject per Year
same,"Diarrhea, Relative Risk of EAIR (95% CL) Versus Placebo",[3],"2.60 (1.11, 6.68)"
same,"Documented hypoglycemia <55 mg/dL, Events per Subject per Year",[3],16.86 Events per Subject per Year
same,"Genital Mycotic Infections (female), EAIR per 1,000 Subject-years (95% CL)",[3],"78.17 (24.00, 132.34) per 1,000 Subject-years"
same,"Genital Mycotic Infections (female), Events [n (%) n]: events n",[3],10
same,"Genital Mycotic Infections (female), Events [n (%) n]: patients (%)",[3],7.2%
same,"Genital Mycotic Infections (female), Events per Subject per Year",[3],0.098 Events per Subject per Year
same,"Genital Mycotic Infections (female), Relative Risk of EAIR (95% CL) Versus Placebo",[3],"2.57 (0.70, 11.96)"
same,"Genital Mycotic Infections (male), EAIR per 1,000 Subject-years (95% CL)",[3],"20.37 (0.00, 48.60) per 1,000 Subject-years"
same,"Genital Mycotic Infections (male), Events [n (%) n]: events n",[3],2
same,"Genital Mycotic Infections (male), Events [n (%) n]: patients (%)",[3],1.9%
same,"Genital Mycotic Infections (male), Events per Subject per Year",[3],0.020 Events per Subject per Year
same,"Genital Mycotic Infections (male), Relative Risk of EAIR (95% CL) Versus Placebo",[3],"1.06 (0.11, 10.19)"
same,"Positively Adjudicated Diabetic Ketoacidosis, EAIR per 1,000 Subject-years (95% CL)",[3],"34.91 (9.05, 60.77) per 1,000 Subject-years"
same,"Positively Adjudicated Diabetic Ketoacidosis, Events [n (%) n]: events n",[3],7
same,"Positively Adjudicated Diabetic Ketoacidosis, Events [n (%) n]: patients (%)",[3],3.2%
same,"Positively Adjudicated Diabetic Ketoacidosis, Events per Subject per Year",[3],0.035 Events per Subject per Year
same,"Positively Adjudicated Severe Hypoglycemia, EAIR per 1,000 Subject-years (95% CL)",[3],"84.77 (44.48, 125.07) per 1,000 Subject-years"
same,"Positively Adjudicated Severe Hypoglycemia, Events [n (%) n]: events n",[3],43
same,"Positively Adjudicated Severe Hypoglycemia, Events [n (%) n]: patients (%)",[3],7.8%
same,"Positively Adjudicated Severe Hypoglycemia, Events per Subject per Year",[3],0.214 Events per Subject per Year
same,"Positively Adjudicated Severe Hypoglycemia, Relative Risk of EAIR (95% CL) Versus Placebo",[3],"1.01 (0.51, 2.00)"
same,"Diarrhea, EAIR per 1,000 Subject-years (95% CL)",[4],"57.25 (29.20, 85.30) per 1,000 Subject-years"
same,"Diarrhea, Events [n (%) n]: events n",[4],22
same,"Diarrhea, Events [n (%) n]: patients (%)",[4],5.2%
same,"Diarrhea, Events [n (%) n]: patients n",[4],16
same,"Diarrhea, Events per Subject per Year",[4],0.079 Events per Subject per Year
same,"Diarrhea, Relative Risk of EAIR (95% CL) Versus Placebo",[4],"0.78 (0.40, 1.51)"
same,"Documented hypoglycemia <55 mg/dL, Events per Subject per Year",[4],13.41 Events per Subject per Year
same,"Genital Mycotic Infections (female), EAIR per 1,000 Subject-years (95% CL)",[4],"240.02 (156.86, 323.19) per 1,000 Subject-years"
same,"Genital Mycotic Infections (female), Events [n (%) n]: events n",[4],41
same,"Genital Mycotic Infections (female), Events [n (%) n]: patients (%)",[4],21.6%
same,"Genital Mycotic Infections (female), Events per Subject per Year",[4],0.308 Events per Subject per Year
same,"Genital Mycotic Infections (female), Relative Risk of EAIR (95% CL) Versus Placebo",[4],"3.37 (1.65, 7.46)"
same,"Genital Mycotic Infections (male), EAIR per 1,000 Subject-years (95% CL)",[4],"41.05 (8.20, 73.89) per 1,000 Subject-years"
same,"Genital Mycotic Infections (male), Events [n (%) n]: events n",[4],7
same,"Genital Mycotic Infections (male), Events [n (%) n]: patients (%)",[4],3.8%
same,"Genital Mycotic Infections (male), Events per Subject per Year",[4],0.048 Events per Subject per Year
same,"Genital Mycotic Infections (male), Relative Risk of EAIR (95% CL) Versus Placebo",[4],"5.96 (0.88, 138.01)"
same,"Positively Adjudicated Diabetic Ketoacidosis, EAIR per 1,000 Subject-years (95% CL)",[4],"28.62 (8.79, 48.46) per 1,000 Subject-years"
same,"Positively Adjudicated Diabetic Ketoacidosis, Events [n (%) n]: events n",[4],9
same,"Positively Adjudicated Diabetic Ketoacidosis, Events [n (%) n]: patients (%)",[4],2.6%
same,"Positively Adjudicated Diabetic Ketoacidosis, Events per Subject per Year",[4],0.032 Events per Subject per Year
same,"Positively Adjudicated Diabetic Ketoacidosis, Relative Risk of EAIR (95% CL) Versus Placebo",[4],"7.77 (1.24, 173.82)"
same,"Positively Adjudicated Severe Hypoglycemia, EAIR per 1,000 Subject-years (95% CL)",[4],"46.51 (21.23, 71.80) per 1,000 Subject-years"
same,"Positively Adjudicated Severe Hypoglycemia, Events [n (%) n]: events n",[4],25
same,"Positively Adjudicated Severe Hypoglycemia, Events [n (%) n]: patients (%)",[4],4.3%
same,"Positively Adjudicated Severe Hypoglycemia, Events per Subject per Year",[4],0.089 Events per Subject per Year
same,"Positively Adjudicated Severe Hypoglycemia, Relative Risk of EAIR (95% CL) Versus Placebo",[4],"0.57 (0.28, 1.14)"
same,"Genital Mycotic Infections (male), Events [n (%) n]: patients n","400 mg (N = 99), Baseline BMI <27 kg/m^2",9
same,"Genital Mycotic Infections (female), Events [n (%) n]: patients n","400 mg (N = 113), Baseline BMI <27 kg/m^2",19
same,"Genital Mycotic Infections (male), Events [n (%) n]: patients n","400 mg (N = 154), Baseline BMI ≥27 kg/m^2",7
same,"Genital Mycotic Infections (female), Events [n (%) n]: patients n","400 mg (N = 159), Baseline BMI ≥27 kg/m^2",28
same,"Positively Adjudicated Diabetic Ketoacidosis, Events [n (%) n]: patients n",[5],9
same,"Positively Adjudicated Severe Hypoglycemia, Events [n (%) n]: patients n",[5],11
same,"Positively Adjudicated Diabetic Ketoacidosis, Events [n (%) n]: patients n",[6],11
same,"Positively Adjudicated Severe Hypoglycemia, Events [n (%) n]: patients n",[6],12
